Where two headings read alike, the source gives them in different places. Each block holds one molecule with its values, some of them ahead of it.
Assays:
[1] = molecular target: T1, lysine acetyltransferase 8 (KAT8) (Homo sapiens, UniProt Q9H7Z6); test: KAT8 activity assay; assay type: biochemical; conditions: N.I. = no inhibition
T1 sequence (Q9H7Z6 1-458): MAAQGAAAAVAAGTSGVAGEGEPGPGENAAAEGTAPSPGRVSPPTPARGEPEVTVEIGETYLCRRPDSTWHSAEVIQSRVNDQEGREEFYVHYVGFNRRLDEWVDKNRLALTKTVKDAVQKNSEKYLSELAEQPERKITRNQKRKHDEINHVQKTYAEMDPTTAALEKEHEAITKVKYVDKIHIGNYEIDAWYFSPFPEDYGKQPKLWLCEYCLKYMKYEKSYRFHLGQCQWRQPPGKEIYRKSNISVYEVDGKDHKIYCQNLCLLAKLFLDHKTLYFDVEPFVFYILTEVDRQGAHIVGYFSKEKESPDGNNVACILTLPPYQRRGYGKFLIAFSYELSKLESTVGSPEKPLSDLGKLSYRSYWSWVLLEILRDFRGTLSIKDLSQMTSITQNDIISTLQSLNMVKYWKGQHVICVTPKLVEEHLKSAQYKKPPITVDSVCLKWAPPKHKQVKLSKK

HDAC3 = HDAC3 (Homo sapiens, UniProt O15379); test: human recombinant HDAC inhibition assay; assay type: biochemical; conditions: read-out: Ki value HDAC3
HDAC8 = molecular target: T2, HDAC8 (Homo sapiens, UniProt Q9BY41); test: human recombinant HDAC inhibition assay; assay type: biochemical; conditions: read-out: Ki value HDAC8
T2 sequence (Q9BY41 1-377): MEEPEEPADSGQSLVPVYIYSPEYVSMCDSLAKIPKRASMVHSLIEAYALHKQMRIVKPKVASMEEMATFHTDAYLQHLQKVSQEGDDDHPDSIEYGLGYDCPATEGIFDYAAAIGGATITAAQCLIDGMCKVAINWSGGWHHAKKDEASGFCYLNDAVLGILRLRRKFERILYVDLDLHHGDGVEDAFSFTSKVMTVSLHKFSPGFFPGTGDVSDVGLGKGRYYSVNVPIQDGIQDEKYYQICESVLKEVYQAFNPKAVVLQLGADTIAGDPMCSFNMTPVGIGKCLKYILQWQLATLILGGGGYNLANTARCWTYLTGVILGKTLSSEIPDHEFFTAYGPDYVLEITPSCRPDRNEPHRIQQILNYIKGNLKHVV

[2] = test system: NF-κB promoter activity in RAW-Blue macrophages; test: RAW-Blue NF-κB reporter gene assay; assay type: cell-based, murine; conditions: 16 hrs pre-treatment + 4 hrs stimulus
HDAC2 = HDAC2 (Homo sapiens, UniProt Q92769); test: human recombinant HDAC inhibition assay and Lineweaver-Burk plots; assay type: biochemical
[3] = test system: murine precision-cut lung slices (PCLS); assay type: cell-based
[4] = test system: α-tubulin acetylation in RAW264.7 cells; test: α-tubulin acetylation immunoblot; assay type: cell-based, murine
RAW264.7 macrophages = test: Viability assay; assay type: cell-based, murine; conditions: C646 concentrations above 30 μM, 20 hrs
HDAC1 = HDAC1 (Homo sapiens, UniProt Q13547); test: human recombinant HDAC inhibition assay; assay type: biochemical; conditions: N.I. = no inhibition
type I and II HDACs = test: recombinant HDAC inhibition, summary over isoenzymes; assay type: biochemical, human
[5] = test system: RAW264.7 murine macrophages; test: Gene expression analysis in RAW264.7 by RT-q-PCR after LPS and IFNγ stimulus; assay type: cell-based
[6] = test system: precision-cut lung slices (PCLS); test: PCLS viability by lactate dehydrogenase; assay type: cell-based, murine; conditions: C646 concentrations above 25 μM
[7] = test system: histone H3 and H4 acetylation in RAW264.7 cells; test: Histone acetylation by acetic anhydride-d6 labelling and LC-MS/MS; assay type: cell-based, murine
HDAC6 = molecular target: T3, HDAC6 (Homo sapiens, UniProt Q9UBN7); test: human recombinant HDAC inhibition assay and Lineweaver-Burk plots; assay type: biochemical
T3 sequence (Q9UBN7 1-1215): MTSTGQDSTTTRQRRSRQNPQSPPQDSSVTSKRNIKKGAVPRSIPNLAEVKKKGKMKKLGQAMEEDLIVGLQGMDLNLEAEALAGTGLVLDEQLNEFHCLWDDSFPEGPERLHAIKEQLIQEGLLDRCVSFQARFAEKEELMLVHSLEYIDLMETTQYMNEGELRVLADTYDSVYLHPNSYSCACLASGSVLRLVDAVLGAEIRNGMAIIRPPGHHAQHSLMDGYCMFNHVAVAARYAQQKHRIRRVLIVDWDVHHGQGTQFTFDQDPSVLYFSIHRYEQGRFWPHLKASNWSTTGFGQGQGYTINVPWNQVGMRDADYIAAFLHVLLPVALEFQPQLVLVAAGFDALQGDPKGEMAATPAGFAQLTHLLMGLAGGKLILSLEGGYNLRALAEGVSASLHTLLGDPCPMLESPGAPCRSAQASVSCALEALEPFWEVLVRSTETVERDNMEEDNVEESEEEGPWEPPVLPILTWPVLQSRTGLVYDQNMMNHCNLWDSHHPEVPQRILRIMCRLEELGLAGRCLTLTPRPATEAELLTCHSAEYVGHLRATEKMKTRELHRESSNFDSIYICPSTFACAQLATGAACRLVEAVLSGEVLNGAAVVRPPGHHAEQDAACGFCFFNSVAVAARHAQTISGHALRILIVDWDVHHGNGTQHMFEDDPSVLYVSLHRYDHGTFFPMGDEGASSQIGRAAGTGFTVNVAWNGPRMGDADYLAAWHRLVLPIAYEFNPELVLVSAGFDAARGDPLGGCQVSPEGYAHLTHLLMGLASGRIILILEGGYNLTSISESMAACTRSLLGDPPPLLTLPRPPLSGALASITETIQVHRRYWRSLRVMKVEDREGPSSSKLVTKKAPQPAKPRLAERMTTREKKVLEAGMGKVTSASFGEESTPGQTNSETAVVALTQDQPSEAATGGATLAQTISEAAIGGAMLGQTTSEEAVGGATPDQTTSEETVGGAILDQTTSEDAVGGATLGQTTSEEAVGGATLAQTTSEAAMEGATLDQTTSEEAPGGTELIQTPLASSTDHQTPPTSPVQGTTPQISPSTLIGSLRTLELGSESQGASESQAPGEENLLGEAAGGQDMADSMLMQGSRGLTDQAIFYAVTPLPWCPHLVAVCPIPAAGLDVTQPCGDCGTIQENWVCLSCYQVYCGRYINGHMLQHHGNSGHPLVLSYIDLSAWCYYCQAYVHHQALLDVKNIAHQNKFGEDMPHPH

[8] = Boc-Lys-(Ac)-AMC as substrate, Lineweaver-Burk plot
[9] = RAW264.7, C646 at 30 μM, downregulation
[10] = C646 at 15, 20, 25 or 30 μM for 6 hrs

HDAC2, sequence (Q92769 whole entry): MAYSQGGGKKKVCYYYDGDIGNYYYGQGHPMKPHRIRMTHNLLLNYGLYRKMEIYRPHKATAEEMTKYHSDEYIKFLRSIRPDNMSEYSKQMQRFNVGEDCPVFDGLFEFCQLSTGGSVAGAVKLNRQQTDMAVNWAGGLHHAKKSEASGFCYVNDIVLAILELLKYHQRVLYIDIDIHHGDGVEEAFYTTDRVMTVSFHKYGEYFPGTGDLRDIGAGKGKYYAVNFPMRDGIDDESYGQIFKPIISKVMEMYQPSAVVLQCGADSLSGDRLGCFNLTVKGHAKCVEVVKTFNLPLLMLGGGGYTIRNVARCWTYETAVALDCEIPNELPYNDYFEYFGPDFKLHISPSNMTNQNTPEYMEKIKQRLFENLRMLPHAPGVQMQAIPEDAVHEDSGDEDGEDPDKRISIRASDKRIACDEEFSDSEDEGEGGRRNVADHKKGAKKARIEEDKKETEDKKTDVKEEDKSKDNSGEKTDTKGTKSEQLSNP
HDAC1, sequence (Q13547 whole entry): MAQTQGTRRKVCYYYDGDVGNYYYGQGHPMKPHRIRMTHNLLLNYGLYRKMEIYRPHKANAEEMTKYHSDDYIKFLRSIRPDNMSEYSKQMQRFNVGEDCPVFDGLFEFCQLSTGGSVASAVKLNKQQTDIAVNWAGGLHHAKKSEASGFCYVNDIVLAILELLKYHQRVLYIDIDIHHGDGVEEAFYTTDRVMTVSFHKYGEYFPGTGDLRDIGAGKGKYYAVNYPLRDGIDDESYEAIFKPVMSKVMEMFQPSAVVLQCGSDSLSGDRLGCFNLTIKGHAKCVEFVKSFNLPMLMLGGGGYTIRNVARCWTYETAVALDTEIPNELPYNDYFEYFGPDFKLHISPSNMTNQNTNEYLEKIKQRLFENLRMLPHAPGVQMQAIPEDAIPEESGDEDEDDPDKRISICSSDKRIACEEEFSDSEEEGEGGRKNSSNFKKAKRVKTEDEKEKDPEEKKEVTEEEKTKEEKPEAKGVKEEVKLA
HDAC3, sequence (O15379 whole entry): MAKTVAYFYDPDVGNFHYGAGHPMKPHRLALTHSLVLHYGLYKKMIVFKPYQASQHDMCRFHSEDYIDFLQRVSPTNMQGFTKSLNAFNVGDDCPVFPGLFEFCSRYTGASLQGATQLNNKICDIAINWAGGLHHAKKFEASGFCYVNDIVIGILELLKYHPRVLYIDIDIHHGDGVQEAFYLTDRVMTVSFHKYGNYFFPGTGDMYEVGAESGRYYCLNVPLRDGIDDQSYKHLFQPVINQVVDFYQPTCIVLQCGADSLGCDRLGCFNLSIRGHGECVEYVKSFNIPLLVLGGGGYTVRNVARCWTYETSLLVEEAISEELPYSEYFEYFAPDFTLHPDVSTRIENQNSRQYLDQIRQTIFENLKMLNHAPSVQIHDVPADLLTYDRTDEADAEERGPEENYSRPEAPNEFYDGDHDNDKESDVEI
HDAC3, sequence (Q9Y618 395-489 partner limits assumed): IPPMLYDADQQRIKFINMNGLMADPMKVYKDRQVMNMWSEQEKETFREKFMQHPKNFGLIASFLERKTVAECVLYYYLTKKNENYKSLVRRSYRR

Ki value KAT8 [1]: N.I.
Ki (HDAC3): 25 ± 5 µM
Ki (HDAC8): 11 ± 1 µM
kinetics of inhibition of HDAC2 (HDAC2; [8]): non-competitive inhibition
Ki (HDAC2; read-out: Ki value HDAC2): 15 ± 1 µM
Ki value HDAC1 (HDAC1): N.I.
concentration from which histone deacetylases are inhibited (type I and II HDACs): ≥ 7 µM
kinetics of inhibition of HDAC6 (HDAC6; [8]): non-competitive inhibition
Ki (HDAC6; read-out: Ki value HDAC6): 7 ± 1 µM
SMILES: CC1=NN(c2ccc(C(=O)O)cc2)C(=O)/C1=C\c1ccc(-c2cc(C)c(C)cc2[N+](=O)[O-])o1 [C646]
LPS and IFNγ induced NF-κB promoter activity ([2]; C646 at 15 μM or higher (up to 30 μM)): significant inhibition
percentage of change in IL-1β gene expression compared to vehicle ([3]; C646 at 25 μM, downregulation): 72.3%
percentage of change in IL-12b gene expression compared to vehicle ([3]; C646 at 25 μM, downregulation): 85.0%
percentage of change in TNFα gene expression compared to vehicle ([3]; C646 at 25 μM, downregulation): 79.1%
percentage of change in iNOS gene expression compared to vehicle ([3]; C646 at 25 μM, downregulation): 58.4%
α-tubulin acetylation ([4]; C646 15 μM for 6 hrs): but not at 15 μM
α-tubulin acetylation ([4]; C646 30 μM for 6 hrs): pronounced inhibition
α-tubulin acetylation ([4]; C646 30 μM for 20 hrs): inhibition of α-tubulin acetylation was also observed
viability of the macrophages (RAW264.7 macrophages): decreased viability
percentage of change in IL-12b gene expression compared to vehicle [5, 9]: 54.2%
percentage of change in TNFα gene expression compared to vehicle [5, 9]: 54.1%
viability of PCLS [6]: decreased viability
acetylation status of histone H3 res. 18-26 (H3 K18 and H3 K23) ([7]; C646 30 μM for 6 hrs): small yet significant increase
acetylation status of histone H4 res. 4-17 [7, 10]: No significant changes
acetylation status of other histone H4 peptides [7, 10]: no changes in acetylation status
histone acetylation (H3 res. 18-26, H4 res. 4-17) ([7]; C646 at 15, 20, 25 or 30 μM for 20 hrs, no inflammatory stimulus): No changes in histone acetylation
acetylation status of histone H3 res. 18-26 (H3 K18 and H3 K23) ([7]; C646 at concentrations lower than 30 μM for 6 hrs): not significant

SMILES: O=C(CCCCCCC(=O)Nc1ccccc1)NO [SAHA, suberanilohydroxamic acid]
LPS and IFNγ induced NF-κB promoter activity ([2]; SAHA 0.41 μM): further enhanced
percentage of change in iNOS gene expression compared to vehicle ([3]; SAHA at 0.41 μM, downregulation): 39.9%
percentage of change in IL-1β gene expression compared to vehicle ([3]; SAHA at 0.41 μM, upregulation): 41.5%
percentage of change in IL-6 gene expression compared to vehicle ([3]; SAHA at 0.41 μM, upregulation): 58.8%
α-tubulin acetylation ([4]; SAHA, data not shown): upregulated
percentage of change in IL-1β gene expression compared to vehicle ([5]; RAW264.7, SAHA at 0.41 μM, upregulation): 317%
acetylation of histone-derived peptides H4 4-17 and H3 18-26 ([7]; SAHA 0.41 µM for 20 hrs): increased acetylation

— publication PMC4871277 (Biochemical pharmacology, 2015)
